This is an account of results in patent US12194024B2, “Pharmaceutical composition of MDM2 inhibitor and use thereof for preventing and/or treating disease” (ASCENTAGE PHARMA (SUZHOU) CO., LTD., priority 2019, dated 2025).

For one test, the system named is MOLM-13 cells. The test can be described thus: Annexin V-FITC/PI apoptosis by flow cytometer. It is filed as cell-based, human. The following applies: 48 hours. An excerpt: The activation of P53 signaling pathway can induce apoptosis, cycle arrest, or senility of cells. […] Therefore, Annexin V-PI fluorescence probe and flow cytometer are used for analyzing the apoptosis of MOML-13 cells after being treated with compound 2 alone or in combination with Decitabine, Azacitidine or Cytarabine (Ara-C).
A general note: In flow cytometry, cells or beads pass a laser one at a time.

The test system of test [1] is human OCI-AML-3 AML xenograft tumor. As to the kind of experiment: Subcutaneous OCI-AML-3 AML mouse xenograft tumor model. The conditions noted are these: Compound 2 50 mg/kg orally q2d, Azacitidine 2 mg/kg i.v., Decitabine 1 mg/kg i.v. In kind it is in vivo, NOD SCID mice. The protocol:
For subcutaneous model, OCI-AML-3 cells (1×10^6) are injected subcutaneously into the right side of the abdomen of 6- to 8-week-old mice. About 10 days after the cell inoculation, the mice are randomly divided into groups based on the primary tumor size achieving about 100-150 mm^3 of average tumor volume.
The tumor diameter is measured twice using a vernier caliper each week. The computational formula of the tumor volume (TV) is: TV=a×b^2/2. In the computational formula, a and b represent the length and width of the tumor measurement respectively. The computational formula of the relative tumor volume (RTV) is: RTV=VtN1. In the computational formula, V1 is the tumor volume when being grouped and administered, and Vt is the tumor volume when being measured at a certain day after the administration.
The tumor remission rate (%) is derived by dividing the number of SD (Stable Disease), PR (Partial response) and CR (Complete response) appearing in the tumor bearing mice after treatment by the total number of mice in the group×100%.
The synergistic analysis uses the following formula (reference can be made to Gould S E et al., Translational value of mouse models in oncology drug development, Nature medicine, 2015 21, 431-439): synergistic factor=((A/C)×(B/C))/(AB/C); A=RTV value of the A drug alone group; B=RTV value of the B drug alone group; C=RTV value of the vehicle control group, AB=RTV value of the AB combined group (Clarke R., Issues in experimental design and endpoint analysis in the study of experimental cytotoxic agents in vivo in breast cancer and other models[J], Breast Cancer Research & Treatment, 1997, 46 (2-3):255-278).
For subcutaneous model, OCI-AML-3 cells (1×10^6) are injected subcutaneously into the right side of the abdomen of 6- to 8-week-old mice. About 10 days after the cell inoculation, the mice are randomly divided into groups based on the primary tumor size achieving about 100-150 mm^3 of average tumor volume. Compound 2 is administered alone or in combination (50 mg/kg, is taken orally, every other day for 15 days) and Aza (2 mg/kg, intravenous injection each day for 7 days) or Dec (1 mg/kg, intravenous injection each day for 7 days). The tumor volume is measured twice using a vernier caliper each week and is represented by following formula in mm^3: V=0.5a×b^2; in the formula, a and b are the long diameter and short diameter of the tumor respectively. […] RTV=VtN1; wherein V1 and Vt are the average tumor volume on the first day (day 1) in the treatment, and the average tumor volume of a certain time point (day t) respectively.
Azacitidine is administered following 2 mg/kg, caudal vein injection, qd×7d, drug withdrawal 7 days, then qd×2 day regimens for seven days (corresponding to the number 68 regimen in table 7).

Test [2] deals with dimethylbenzanthracene-induced rat myelodysplastic syndrome (MDS). As to the kind of experiment: Dimethylbenzanthracene-induced rat myelodysplastic syndrome (MDS) model. The conditions noted are these: p.o., q2d×21 d; for average WBCB value of bone marrow: MDS model group 16.89±2.75; for average PLT value of bone marrow: MDS model group 52±2.49. It is filed as in vivo, SD rat. The protocol: Multiple human-derived rat MDS model is used for evaluating the in vivo anti-tumor effect of compound 2 alone.
The rat myelodysplastic syndrome (MDS) model is constructed using a chemical mutagenic agent dimethylbenzanthracene (DMBA). in the rat MDS model, the changes of myelogram and hemogram are similar to that of human myelodysplastic syndromes, and it is confirmed that it can be used for the anti-MDS effect study of drugs. DMBA is administered at 50 mg/kg, i.v. Following the once per week regimen for 4 weeks totally to establish the rat MDS model. One week after the end of DMBA administration (day 28), peripheral blood is collected from the caudal vein for routine blood test to determine whether the model is established successfully.
The animals are randomly divided into groups according to the PLT level on day 28, wherein a vehicle control group (Vehicle), two dosage groups of compound 2 (10 mg/kg) and compound 2 (30 mg/kg) (corresponding to the number 23 regimen in table 3), and healthy control group (naive) are totally set, each group has 5 animals.
Compound 2 is administered following 10 mg/kg or 30 mg/kg, p.o., q2d×21 d regimens. After the administration, the peripheral blood and bone marrow cells from each group of animals for routine blood analysis.

Regarding `CCN1[C@@H](C(=O)NC23CCC(C(=O)O)(CC2)CC3)[C@H](c2cccc(Cl)c2F)[C@]2(C(=O)Nc3cc(Cl)ccc32)C12CCCCC2` [Compound 2], the “MOLM-13 cells being apoptotic (Annexin V+ cells)” value with MOLM-13 cells (40 nM) is listed as “about 31.0%”; in the test with MOLM-13 cells (110 nM) it was roughly 55.1%; in the test with MOLM-13 cells (1000 nM), roughly 96.8%. Besides, the “T/C value (%) (d15)” value in test [1] amounted to 84.8%. Further, the “Relative tumor volume (RTV, Mean ± SEM)” value in test [1] (d15, vehicle 16.5 ± 4.1) is listed as 14.0 ± 2.7. Also, the “average WBCB value of bone marrow” value in test [2] (10 mg/kg) was 47.5±10.13 cells/μl; in test [2] (30 mg/kg), 62.53±13.08 cells/μl. The “average PLT value of bone marrow” value in test [2] (10 mg/kg) is 116±9.35 cells/μl; in test [2] (30 mg/kg) it was 124.2±23.8 cells/μl.
